Source: patent publication US12605402B2, “Therapeutic uses of oxidizing hypotonic acid solutions” (APR Applied Pharma Research SA, priority 2019, dated 2026)
Like-named read-outs stand apart in the source and are kept apart here.

Key:
SARS-CoV-2 = assay type: cell-based; conditions: concentration 90% (solution), 63% (ethanol); for Virus Titer: virus control 3.5

In the case of `CCO` [Ethanol], the “LRV (log reduction value) compared to the virus control” value (SARS-CoV-2; Contact Time 3 min) is reported as over 1.8, the “Virus Titer” value (SARS-CoV-2; Contact Time 3 min) is reported as <1.7 Log10 CCID50 of virus per 0.1 mL and the “LRV (log reduction value) compared to the virus control” value (SARS-CoV-2; Contact Time <1 min) is reported as over 1.8. The “Virus Titer” value (SARS-CoV-2; Contact Time <1 min) was <1.7 Log10 CCID50 of virus per 0.1 mL and the toxicity to cells (Vero 76 cells) was “toxic to cells”.
